Tests used:
Assay type in all cases: cell-based, human
CD34+ HSPCs [1] = assay: TPO requirement with or without TNFα, 14-day culture; settings: 14 days
Procedure: To assess the requirement for TPO in T lineage development, CD34+ HSPCs were analyzed by flow cytometry after 14 days in the presence or absence of TNFα, and further in the presence or absence of TPO.

CD34+ HSPCs [2] = assay: Definitive screening design cytokine screen for proT cell differentiation and expansion
Procedure: For experiments 7 days or longer, HSPCs were seeded at 63-125 cells/mm^2 (equivalent to 2000-4000 cells/well of a 96-well plate) on DL4+VCAM-1-coated surfaces. Experiments shorter than 7 days (CFSE and qPCR) were seeded at 470-780 cells/mm^2 (equivalent to 15,000-25,000 cells/well of a 96-well plate) to provide enough cells for analysis. Cells were cultured in 100 μl/well (32 μl/well for 384-well plate) of Iscove's Modified Eagle Medium (IMDM) supplemented with 20% bovine serum albumin, insulin, and transferrin (BIT 9500) serum substitute (Stemcell Technologies), 1 μg/ml low-density lipoprotein (LDL; Stemcell Technologies), 60 μM ascorbic acid (Sigma), 24 μM 2-mercaptoethanol (Sigma), and 1% penicillin-streptomycin (P/S; Invitrogen). The cytokines used in control condition were SCF, FLT3L, TPO, and IL-7 (also known as the “4F cytokines”, all of which were obtained from R&D Systems), each at a concentration of 20 ng/ml or 100 ng/ml as indicated in the text. All other cytokines were purchased from R&D Systems and used in the combinations and concentrations indicated in the text. For certain experiments, the γ-secretase inhibitor (2S)-N-[(3,5-Difluorophenyl)acetyl]-L-alanyl-2-phenyl] glycine 1,1-dimethylethyl ester (DAPT) or dimethyl sulfoxide (DMSO) was added to media at the concentrations indicated in the text.
For screening experiments, a Definitive Screening Design (DSD)^7 was employed where each factor was tested at three levels (scaled to [−1,0,1]). The design included at least 2m+1 runs, where m is the number of factors, comprised of m fold-over pairs plus a center run (with all factors at level 0) and with orthogonal blocking of UCB donors.^8
Absolute cell numbers were acquired for each cell population of interest and, for initial experiments, a z-score was calculated relative to the control condition:
where SE(⋅) is the standard error. Control conditions were the cytokines used previously in the DL4+VCAM-1 assay as in Shukla et al.^6 Stepwise regression using the minimum Bayesian information criterion method was used to determine significant terms and, from this, a linear regression model of z-scores was constructed that included main and quadratic effects and two-factor interactions. This provided a better- or worse-than estimate for each factor compared to the control. The DSD layout and regression model were constructed using JMP 13 software (SAS). Follow up experiments measuring the dose response of top factors, the regression model was fit to the absolute cell count. Values were square root or log-transformed as necessary to ensure that residuals were approximately normal before fitting the regression model.
Test conditions were arranged using serial dilutions of each cytokine and laid out using an Eppendorf epMotion 5070 liquid handler in 384-well plates previously coated with DL4 and VCAM-1.
To identify factors that enhance proT cell differentiation and expansion, a two-part screen was conducted from day 0-7 and day 7-14 to separate the effects of screened molecules on HSPCs and differentiating proT cells (FIG. 1a). Screened molecules were tested at three doses each in combination using a definitive screening design (DSD) experiment and a linear regression model was fit to empirical data to estimate dose response.^7 The response to factors was measured against a control condition that contained SCF, FLT3L, TPO and IL-7 cytokines as in Shukla et al.^6 but using a lower concentration of 20 ng/ml each.
Medium gray indicates the effect of the control condition; dark gray to black indicates an effect greater than the control condition; and light gray to white indicates an effect lesser than the control condition. The size of each circle indicates the significance of the effect in the linear regression model. Combinations of factors indicate two-factor interactions (e.g., TPO*IL-1β) or quadratic effects (e.g., IL-21*IL-21) in the regression model. […] IL-3 and TNFα were selected for further investigation. […]

CD34+ HSPCs [3] = assay: γ-secretase inhibitor (GSI) titration, 14-day culture on DL4+VCAM-1; settings: increasing concentrations of GSI; 14 days
Procedure: (§1) For experiments 7 days or longer, HSPCs were seeded at 63-125 cells/mm^2 (equivalent to 2000-4000 cells/well of a 96-well plate) on DL4+VCAM-1-coated surfaces. Experiments shorter than 7 days (CFSE and qPCR) were seeded at 470-780 cells/mm^2 (equivalent to 15,000-25,000 cells/well of a 96-well plate) to provide enough cells for analysis. Cells were cultured in 100 μl/well (32 μl/well for 384-well plate) of Iscove's Modified Eagle Medium (IMDM) supplemented with 20% bovine serum albumin, insulin, and transferrin (BIT 9500) serum substitute (Stemcell Technologies), 1 μg/ml low-density lipoprotein (LDL; Stemcell Technologies), 60 μM ascorbic acid (Sigma), 24 μM 2-mercaptoethanol (Sigma), and 1% penicillin-streptomycin (P/S; Invitrogen). The cytokines used in control condition were SCF, FLT3L, TPO, and IL-7 (also known as the “4F cytokines”, all of which were obtained from R&D Systems), each at a concentration of 20 ng/ml or 100 ng/ml as indicated in the text. All other cytokines were purchased from R&D Systems and used in the combinations and concentrations indicated in the text. For certain experiments, the γ-secretase inhibitor (2S)-N-[(3,5-Difluorophenyl)acetyl]-L-alanyl-2-phenyl] glycine 1,1-dimethylethyl ester (DAPT) or dimethyl sulfoxide (DMSO) was added to media at the concentrations indicated in the text. […]

CD34+ HSPCs [4] = assay: Surface expression of CD117, CD123 and CD127 after 24 hours of TNFα stimulation; settings: TNFα stimulation for 24 hours
Procedure: Prior to analysis via flow cytometry, adherent cells were collected from DL4+VCAM-1 surfaces using vigorous pipetting or TrypLE Express Enzyme (ThermoFisher) for 5 minutes at 37° C. Afterwards, cells were rinsed twice with Hanks Balanced Salt Solution (ThermoFisher) plus 2% FBS (HF). Surface antibodies were stained at 1:100-1:300 in HF at room temperature for 15 minutes. Cells were then rinsed once with HF and resuspended in HF with 1:1000 7-AAD to exclude dead cells. Data was acquired with a BD Fortessa™ and compensation and gating was performed with FlowJo™ software and further analysis with the R programming language (version 3.3.2).
Next, the expression of CD117 (c-kit; SCF receptor), CD123 (IL-3 receptor) and CD127 (IL-7 receptor) on CD34+ HSPCs was evaluated in the presence or absence of TNFα stimulation for 24 hours.

CD34+ HSPCs [5] = assay: Timed addition of TNFα (day 0, 1, 2 or 3), 7-day culture on DL4+VCAM-1; settings: late addition of TNFα; day 7
Procedure: as §1

TNFα
T lineage development in the absence of TPO (CD34+ HSPCs [1]): supports T lineage development in the absence of TPO | effect on total live cells, CD7+ lymphocytes and CD7+CD5+ cells relative to the control condition (CD34+ HSPCs [2]; day 0-7 and day 7-14, control SCF, FLT3L, TPO, IL-7 at 20 ng/ml each, linear regression model): string positive effects | dose response of live cells, CD7+ lymphocytes and CD7+CD5+ proT cells (CD34+ HSPCs [2]; range of concentrations, n=2 UCB donors): curved response in at least one population | CD7+CD5+ proT cell generation under Notch inhibition (CD34+ HSPCs [3]): capable of maintaining CD7+CD5+ proT cell generation with a higher concentration of GSI than the control condition | frequency of CD123+ cells (CD34+ HSPCs [4]): significant increase | median fluorescent intensity (MFI) of CD123 (CD34+ HSPCs [4]): increase in the median fluorescent intensity | CD7+ lymphoid cells (CD34+ HSPCs [5]): decrease in CD7+ lymphoid cells | CD14/33+ myeloid lineage cells (CD34+ HSPCs [5]): increase in CD14/33+ myeloid lineage cells

Source: patent US20220403326A1, “MEDIA FORMULATIONS AND METHODS FOR PRODUCING PROGENITOR T CELLS” (priority 2019, published 2022)
